US20200071326A1, “TAM KINASE INHIBITORS” (Syros Pharmaceuticals, Inc., priority 2017, published 2020)
Structures can show the parent of a compound that is named as a salt.

How the values were obtained:
MERTK = biological target: T1, MERTK (Homo sapiens, UniProt Q12866); assay: IMAP fluorescence polarization kinase assay, MERTK; assay type: biochemical; conditions: ATP 2.69 μM, enzyme 1.5 nM, 240 minutes, read-out: MERTK inhibitory constant (Ki)
T1 sequence (Q12866 21-999): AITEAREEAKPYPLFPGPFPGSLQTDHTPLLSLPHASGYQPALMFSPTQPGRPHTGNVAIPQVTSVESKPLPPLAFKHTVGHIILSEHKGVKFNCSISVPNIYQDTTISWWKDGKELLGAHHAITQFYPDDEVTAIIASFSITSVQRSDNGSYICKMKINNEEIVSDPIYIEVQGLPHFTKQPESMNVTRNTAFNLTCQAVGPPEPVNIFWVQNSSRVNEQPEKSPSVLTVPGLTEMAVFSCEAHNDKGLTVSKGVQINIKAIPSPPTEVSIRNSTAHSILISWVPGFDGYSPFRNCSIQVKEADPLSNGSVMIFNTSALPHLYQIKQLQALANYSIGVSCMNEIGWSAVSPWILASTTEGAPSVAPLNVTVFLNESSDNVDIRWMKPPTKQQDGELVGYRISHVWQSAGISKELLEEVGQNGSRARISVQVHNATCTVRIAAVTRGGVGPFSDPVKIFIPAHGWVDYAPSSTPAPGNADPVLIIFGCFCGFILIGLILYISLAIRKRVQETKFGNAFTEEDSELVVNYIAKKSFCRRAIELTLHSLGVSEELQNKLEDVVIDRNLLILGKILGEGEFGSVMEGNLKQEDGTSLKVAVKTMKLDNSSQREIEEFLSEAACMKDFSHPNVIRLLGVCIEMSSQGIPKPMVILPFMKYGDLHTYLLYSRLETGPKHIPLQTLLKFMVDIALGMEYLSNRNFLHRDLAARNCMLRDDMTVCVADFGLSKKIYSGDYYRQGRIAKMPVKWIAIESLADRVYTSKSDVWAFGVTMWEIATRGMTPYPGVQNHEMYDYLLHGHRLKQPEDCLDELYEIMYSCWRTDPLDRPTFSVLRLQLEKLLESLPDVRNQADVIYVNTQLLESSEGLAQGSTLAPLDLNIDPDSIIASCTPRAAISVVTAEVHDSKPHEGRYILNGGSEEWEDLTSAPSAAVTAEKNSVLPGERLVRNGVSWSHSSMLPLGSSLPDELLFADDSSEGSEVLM
Description: (§1) Activities of compounds against each of TYRO3, AXL, and MERTK as well as against FLT3, were determined using an immobilized metal ion affinity-based fluorescence polarization (“IMAP”) assay. A fluorescently-labeled substrate peptide was phosphorylated in the kinase reaction, after which a binding solution containing large trivalent metal-based nanoparticles was added and the phosphorylated substrate binds to these beads. This reduces the rotational speed of the substrate which is then detected using fluorescence polarization as a read-out.
(§2) The substrates used for each enzyme are as follows: AXL: 5F1-KKKKEEIYFFFG-NH2(SEQ ID NO:1); FLT3: 5F1-KKKKEEIYFFF-NH2 (SEQ ID NO:2); MERTK: 5F1-EFPIYDFLPAKKK-NH2 (SEQ ID NO:3); and TYRO3: 5F1-EFPIYDFLPAKKK-NH2 (SEQ ID NO:4).
(§3) This assay was performed in a 384-well, polystyrene microplate in a final volume of 8 μl. Substrate (final concentration=400 nM), ATP (final concentrations=24.7μM for AXL; 2.74 μM for FLT3; 2.69 μM for MERTK; and 54.0 μM for TYRO3), compounds and enzyme (final concentrations=2.5 nM for AXL, FLT3 and TYRO3; 1.5 nM for MERTK) were pipetted in this order into the appropriate reaction buffer (AXL: 50 mM HEPES, pH 8.0, 1 mM DTT, 10 mM MgCl2, 0.01% BRU35, 0.01% Triton X-100; FLT3: 50 mM HEPES, pH 8.0, 1 mM DTT, 10 mM MgCl2, 0.01% Triton X-100, 0.01% NP40; MERTK/TYRO3: 50 mM HEPES, pH 8.0, 1 mM DTT, 10 mM MgCl2, 0.01% Triton X-100) and incubated at room temperature for varying times (AXL, FLT3 and MERTK: 240 minutes; TYRO3: 60 minutes). IMAP binding solution was then dispensed, the plate incubated for 60 minutes at room temperature and the fluorescence polarization measured. Data were analyzed using XLfit.

FLT3 = biological target: T2, FLT3 (Homo sapiens, UniProt P36888); assay: IMAP fluorescence polarization kinase assay, FLT3; assay type: biochemical; conditions: ATP 2.74 μM, enzyme 2.5 nM, 240 minutes, read-out: FLT3 inhibitory constant (Ki)
T2 sequence (P36888 27-993): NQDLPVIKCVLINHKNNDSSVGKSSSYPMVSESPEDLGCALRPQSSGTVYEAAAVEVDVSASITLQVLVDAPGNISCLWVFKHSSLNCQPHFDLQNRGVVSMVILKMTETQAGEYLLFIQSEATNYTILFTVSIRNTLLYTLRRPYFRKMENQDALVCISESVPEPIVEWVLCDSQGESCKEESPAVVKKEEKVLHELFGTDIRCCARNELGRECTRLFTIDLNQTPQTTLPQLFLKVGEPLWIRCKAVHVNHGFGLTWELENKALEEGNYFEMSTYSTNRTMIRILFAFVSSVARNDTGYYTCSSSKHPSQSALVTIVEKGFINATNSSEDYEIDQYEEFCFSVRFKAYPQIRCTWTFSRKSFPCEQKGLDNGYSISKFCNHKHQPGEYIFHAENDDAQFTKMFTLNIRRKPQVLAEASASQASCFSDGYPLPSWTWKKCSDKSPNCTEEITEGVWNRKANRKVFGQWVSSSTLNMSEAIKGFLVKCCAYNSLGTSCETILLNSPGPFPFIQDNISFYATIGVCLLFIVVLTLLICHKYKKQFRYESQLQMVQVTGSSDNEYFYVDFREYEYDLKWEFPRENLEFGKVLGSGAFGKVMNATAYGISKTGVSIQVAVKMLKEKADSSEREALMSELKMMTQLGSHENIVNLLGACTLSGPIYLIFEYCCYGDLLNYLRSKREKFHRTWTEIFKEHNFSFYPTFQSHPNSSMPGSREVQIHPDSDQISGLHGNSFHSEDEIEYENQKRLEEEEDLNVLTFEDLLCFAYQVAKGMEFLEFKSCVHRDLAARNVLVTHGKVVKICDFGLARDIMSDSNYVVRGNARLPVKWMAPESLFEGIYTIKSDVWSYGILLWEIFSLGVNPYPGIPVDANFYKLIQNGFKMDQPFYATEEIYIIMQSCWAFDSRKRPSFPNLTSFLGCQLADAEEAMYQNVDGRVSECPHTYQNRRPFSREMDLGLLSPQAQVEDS
Description: as §1, §2, §3

SMILES	Ki (MERTK) [nM]	Ki (FLT3) [nM]
CCCc1cc2c(N[C@H]3CC[C@H](N)CC3)c(C(=O)Nc3ccc(F)cc3)cnc2[nH]1 [Compound 100, 4-(((1r,4r)-4-aminocyclohexyl)amino)-N-(4-fluorophenyl)-2-propyl-1H-pyrrolo [2,3-b]pyridine-5-carboxamide hydrochloride]	< 100	< 100
CCCc1cc2c(N[C@H]3CC[C@H](O)CC3)c(C(=O)Nc3ccc(F)cc3)cnc2[nH]1 [Compound 101]	100 to 1000	100 to 1000
CCCc1cc2c(N[C@H]3CC[C@H](O)CC3)c(C(=O)NCc3ccc(-n4ccnc4)cc3)cnc2[nH]1 [Compound 102]	< 100	< 100
Cc1cc2c(N[C@H]3CC[C@H](N)CC3)c(C(=O)Nc3ccc(F)cc3)cnc2[nH]1 [Compound 103]	< 100	< 100
CCCc1cc2c(N[C@H]3CC[C@H](O)CC3)c(C(=O)NC3CCN(c4ncccn4)CC3)cnc2[nH]1 [Compound 104]	< 100	100 to 1000
CCCc1cc2c(N[C@H]3CC[C@H](O)CC3)c(-c3ccc(CN4CCOCC4)cn3)cnc2[nH]1 [Compound 105]	< 100	< 100
CCCc1cc2c(N[C@H]3CC[C@H](O)CC3)c(-c3ccc(CN4CCOCC4)cc3)cnc2[nH]1 [Compound 106, (1r,4r)-4-((5-(4-(morpholinomethyl)phenyl)-2-propyl-1H-pyrrolo[2,3-b]pyridin-4-yl)amino)cyclohexanol hydrochloride]	100 to 1000	100 to 1000
CCCc1cc2c(N[C@H]3CC[C@H](O)CC3)c(-c3cnn(CCN(C)C)c3)cnc2[nH]1 [Compound 107]	100 to 1000	100 to 1000
CCCc1cc2c(N[C@H]3CC[C@H](N)CC3)c(-c3cnn(C)c3)cnc2[nH]1 [Compound 108, (1r,4r)-N1-(5-(1-methyl-1H-pyrazol-4-yl)-2-propyl-1H-pyrrolo[2,3-b]pyridine-4-yl)cyclohexane-1,4-diamine hydrochloride]	< 100	100 to 1000
CCCc1cc2c(N[C@H]3CC[C@H](O)CC3)c(-c3ccc(CNCC45C[C@H]6C[C@@H](C4)C[C@@H](C5)C6)cn3)cnc2[nH]1 [Compound 109]	< 100	< 100
N[C@H]1CC[C@H](Nc2c(C(=O)NCc3ccc(-n4ccnc4)cc3)cnc3[nH]c(-c4ccccc4)cc23)CC1 [Compound 110]	< 100	1000 to 10000
CCCc1cc2c(N[C@H]3CC[C@H](N)CC3)c(-c3cc(NC)ncn3)cnc2[nH]1 [Compound 111, (1r,4r)-N^1-(5-(6-(methylamino)pyrimidin-4-yl)-2-propyl-1H-pyrrolo[2,3-b]pyridine-4-yl)cyclohexane-1,4-diamine hydrochloride]	< 100	< 100
CCCc1cc2c(N[C@H]3CC[C@H](N)CC3)c(-c3cc(NC(C)C)ncn3)cnc2[nH]1 [Compound 112]	< 100	< 100

The remaining lines, values ahead:

Ki (MERTK) [nM]	Ki (FLT3) [nM]	SMILES
< 100	< 100	CCCc1cc2c(N[C@H]3CC[C@H](N)CC3)c(-c3ccccn3)cnc2[nH]1 [Compound 113]
< 100	< 100	CCCc1cc2c(N[C@H]3CC[C@H](N)CC3)c(-c3ccc(F)cn3)cnc2[nH]1 [Compound 114]
< 100	< 100	CCCc1cc2c(N[C@H]3CC[C@H](N)CC3)c(-c3ccc(S(=O)(=O)N4CCOCC4)cn3)cnc2[nH]1 [Compound 115]
< 100	< 100	CCCc1cc2c(N[C@H]3CC[C@H](N)CC3)c(-c3cc(N)ncn3)cnc2[nH]1 [Compound 116]
< 100	< 100	CCCc1cc2c(N[C@H]3CC[C@H](N)CC3)c(-c3nccs3)cnc2[nH]1 [Compound 117]
< 100	< 100	CCCc1cc2c(N[C@H]3CC[C@H](N)CC3)c(-c3ccnc(N4CCCC4)n3)cnc2[nH]1 [Compound 118, (1r,4r)-N1-(2-propyl-5-(2-(pyrrolidin-1-yl)pyrimidin-4-yl)-1H-pyrrolo[2,3-b]pyridine-4-yl)cyclohexane-1,4-diamine hydrochloride]
< 100	< 100	CCc1cc2c(N[C@H]3CC[C@H](N)CC3)c(C(=O)NCc3ccc(-n4ccnc4)cc3)cnc2[nH]1 [Compound 119, N-(4-(1H-imidazol-1-yl)benzyl)-4-(((1r,4r)-4-aminocyclohexyl)amino)-2-ethyl-1H-pyrrolo[2,3-b]pyridine-5-carboxamide]
< 100	< 100	CCCc1cc2c(N[C@H]3CC[C@H](N)CC3)c(-c3ccc(N)cn3)cnc2[nH]1 [Compound 120]
< 100	< 100	CCCc1cc2c(N[C@H]3CC[C@H](N)CC3)c(C(=O)NCc3ccc(-n4ccnc4)cc3)cnc2[nH]1 [Compound 121]
< 100	< 100	CCCc1cc2c(N[C@H]3CC[C@H](N)CC3)c(-c3cc(OC)ncn3)cnc2[nH]1 [Compound 122]
< 100	< 100	CCCc1cc2c(N[C@H]3CC[C@H](N)CC3)c(-c3ccnc(N)n3)cnc2[nH]1 [Compound 123]
< 100	100 to 1000	CCCc1cc2c(N[C@H]3CC[C@H](N)CC3)c(C(=O)NC3CCOCC3)cnc2[nH]1 [Compound 124]
< 100	< 100	CCCc1cc2c(N[C@H]3CC[C@H](O)CC3)c(-c3ccc(CN4CCCC4)cn3)cnc2[nH]1 [Compound 125]
< 100	< 100	N[C@H]1CC[C@H](Nc2c(C(=O)NCc3ccc(-n4ccnc4)cc3)cnc3[nH]c(C4CCCC4)cc23)CC1 [Compound 126]
< 100	< 100	CCCc1cc2c(N[C@H]3CC[C@H](N)CC3)c(-c3ccc(C)nn3)cnc2[nH]1 [Compound 127]
